This is an account of results in US11976066B1 (priority 2023, dated 2024).

Each structure is given as a SMILES string. Converted amounts (≈) assume the structure as drawn. Where two headings read alike, the source gives them in different places.

The test system of the assay is Mycobacterium tuberculosis H37Rv. Kind of assay: Resazurin Microplate Assay (REMA), anti-tubercular activity, susceptible strain. In kind it is cell-based. Particulars: 192 h.
Setting [1] is: H37Rv strain, 8 days incubation at 37° C, Middlebrook 7H9 broth, read-out: MIC Susceptible (H37Rv).

In the case of `CCOC(=O)c1cc(C(=O)c2ccccc2[N+](=O)[O-])n2ccc(N)cc12` [Compound 3b, Ethyl 7-amino-3-(2-nitrobenzoyl)indolizine-1-carboxylate], the MIC under setting [1] was about 8 µg/mL (≈ 22.6 µM).
The same measure, in the same setting: for `CCOC(=O)c1cc(C(=O)c2ccc(Br)cc2)n2ccc(N)cc12` [Compound 3e, Ethyl 7-amino-3-(4-bromobenzoyl)indolizine-1-carboxylate] the value was about 32 µg/mL (≈ 82.6 µM).
With `CCOC(=O)c1cc(C(=O)c2ccc(F)cc2)n2ccc(N)cc12` [Compound 3a, Ethyl 7-amino-3-(4-fluorobenzoyl)indolizine-1-carboxylate], the MIC (read-out: MIC Susceptible (H37Rv), H37Rv strain, 8 days incubation at 37° C, Middlebrook 7H9 broth) was about 16 µg/mL (≈ 49 µM).
